{"source": "patent US20240216383A1", "about": "“FORMULATIONS AND METHODS FOR TREATING ERECTILE DYSFUNCTION” (Strategic Drug Solutions, Inc., priority 2020, published 2024)", "key": {"[1]": {"assay": "Saturated solubility of vardenafil API in water and organic-aqueous solvents (shake flask, HPLC)", "assay_type": "physicochemical", "details": "for solubility: water, pH 4, aqueous buffer, thermodynamic from solid, pH4", "protocol": "For screening of various organic solvents, the solubility of vardenafil API in different % ethanol-aqueous mixtures was first investigated and compared to solubility in pure water. As disclosed herein, the solutions were prepared by the “shake flask” method. Briefly, increasing amounts of vardenafil API were added to different mixtures until saturation. The saturated organic-aqueous mixtures were adjusted for pH (at the range pH 3.5-7.5) with the use of a pH meter. The saturated solution was shaken slowly with a magnetic stirrer at room temperature or shaken rapidly several times a day for 24 hours or longer, up to 3 days. Afterwards, the solutions were filtered using the VWR 0.2 micron filter. The filtrate was then used for inspection of clarity and concentration was determined by HPLC. In addition, the saturated solubility of vardenafil various organic-aqueous solution, e.g., in glycerin (glycerol), polyethylene glycol 400 (PEG) and combination of two organic solvents were investigated. Vardenafil solubility in some other representative organic-aqueous solutions were also investigated.\nThe standard curves were prepared in MeOH and mixed with PBS so that the analytical matrices were the same."}, "[2]": {"details": "cited from earlier work; for half-life: oral, terminal half-life"}, "[3]": {"assay": "Vardenafil permeability (Papp) and flux (Jss) by PAMPA", "assay_type": "in vitro ADME", "excerpt": "As disclosed herein, the permeability of vardenafil API in different solvents at room temperature and atmospheric pressure was screened using in vitro PAMPA. The PAMPA predicts passive absorption of drugs and is suitable for studies with many solutions including ethanol (up to concentration of 30%)(22-24). The unit of measurement is the apparent permeability (Papp) obtained at steady state, expressed as cm/second. Also another associated measurement is the maximum flux (Jss) at a particular pH, expressed as the quantity of drug across the unit area per sec, is calculated from the Papp and saturated solubility. […]\nApparent permeability coefficient (Papp) determination, expressed as cm/sec, was calculated based on the following equation at steady state (24) where • VD=volume in donor chamber • VA=volume in acceptor chamber • A=effective area of the membrane (PAMPA: 0.3 cm^2) • t=duration of the permeability study • CA=drug concentration in the acceptor well at the end of the study • CE=equilibrium concentration in both wells, and […]\nSteady state flux (Jss). The Jss, expressed as ug/sec/cm^2, was calculated based on the following equation where • CD=loading concentration in the donor chamber […]"}, "[4]": {"details": "cited from earlier work"}, "[5]": {"details": "cited from earlier work", "remark": "listed apart in the source"}, "[6]": {"assay": "Saturated solubility of sildenafil in water and organic-aqueous solvents (shake flask, HPLC)", "assay_type": "physicochemical", "details": "for solubility: water, thermodynamic from solid", "excerpt": "Afterwards the solution was filtered using the VWR 0.2 mcron filter."}}, "note": "Counter-ions that a name gives are not always drawn. Like-named read-outs stand apart in the source and are kept apart here.", "data": [{"compound": "CCCc1nc(C)c2c(=O)[nH]c(-c3cc(S(=O)(=O)N4CCN(CC)CC4)ccc3OCC)nn12", "note": "[vardenafil API, vardenafil hydrochloride trihydrate]", "values": [{"measurement": "time until precipitation", "setting": "[1]; solubilized in 12% alcohol", "result": "≤ 24", "unit": "h"}, {"measurement": "solubility", "setting": "[1]; read-out: mean saturated solubility in water", "result": "< 20000", "unit": "µg/mL"}]}, {"compound": "CCCc1nc(C)c2c(=O)[nH]c(-c3cc(S(=O)(=O)N4CCN(CC)CC4)ccc3OCC)nn12", "note": "[vardenafil]", "values": [{"measurement": "absolute bioavailability", "setting": "[2]; oral administration", "result": "about 15%"}, {"measurement": "mean time (Tmax) for maximum plasma concentration", "setting": "[2]; oral administration", "result": "about 60 min"}, {"measurement": "JsspHmax", "setting": "[3]; vardenafil aqueous, pH4", "result": "7.74 E-05 ug/s/cm^2"}, {"measurement": "Jss(ref)", "setting": "[3]; vardenafil, Solmin 20 mg/ml, IN dose 2 mg/nostril, pHmax pH4", "result": "8.5E-05", "unit": "ug/s/cm^2"}, {"measurement": "log P", "setting": "[4]", "result": 3.64}, {"measurement": "solubility", "setting": "[5]; pH 1", "result": "about 8.8 g/L"}, {"measurement": "solubility", "setting": "[5]; pH 2", "result": "~3000", "unit": "µg/mL"}, {"measurement": "solubility", "setting": "[5]; pH 3", "result": "~1600", "unit": "µg/mL"}, {"measurement": "aqueous solubility", "setting": "[5]; pH 4-7", "result": "less than 2 mg/ml"}, {"measurement": "solubility", "setting": "[5]; pH 4", "result": "~880", "unit": "µg/mL"}, {"measurement": "solubility", "setting": "[5]; pH 5", "result": "~160", "unit": "µg/mL"}, {"measurement": "solubility", "setting": "[5]; pH 6", "result": "~19", "unit": "µg/mL"}, {"measurement": "solubility", "setting": "[1]; read-out: V(ssol)pHmax, aqueous saturated solubility at pHmax", "result": 18200, "unit": "µg/mL"}]}, {"compound": "CCCc1nc(C)c2c(=O)[nH]c(-c3cc(S(=O)(=O)N4CCNCC4)ccc3OCC)nn12", "note": "[MI metabolite]", "values": [{"measurement": "share of total pharmacologic activity", "setting": "[2]; metabolite of vardenafil", "result": "about 7%"}]}, {"compound": "CN1CC(=O)N2[C@H](c3ccc4c(c3)OCO4)c3[nH]c4ccccc4c3C[C@@H]2C1=O", "note": "[tadalafil]", "values": [{"measurement": "mean time (Tmax) for maximum plasma concentration", "setting": "[2]; following a single dose", "result": "about 2 h"}, {"measurement": "absolute bioavailability", "setting": "[2]; oral administration", "result": "≤ 80", "unit": "%"}, {"measurement": "half-life", "setting": "[2]", "result": "about 17.5 h"}]}, {"compound": "CCCc1nn(C)c2c(=O)[nH]c(-c3cc(S(=O)(=O)N4CCN(C)CC4)ccc3OCC)nc12", "note": "[sildenafil]", "values": [{"measurement": "aqueous solubility", "setting": "[6]; sildenafil, pHmax 4.2", "result": 3540, "unit": "µg/mL"}, {"measurement": "solubility", "setting": "[6]; pH 4, aqueous buffer, read-out: aqueous saturated solubility", "result": "< 5000", "unit": "µg/mL"}, {"measurement": "solubility", "setting": "[6]; pH 4.55, aqueous buffer, read-out: aqueous solubility", "result": 3340, "unit": "µg/mL"}, {"measurement": "absolute bioavailability", "setting": "[2]; oral administration", "result": "about 41%"}, {"measurement": "mean time (Tmax) for maximum plasma concentration", "setting": "[2]; oral administration", "result": "about 60 min"}, {"measurement": "half-life", "setting": "[2]", "result": "about 4 h"}, {"measurement": "log P", "setting": "[4]", "result": 2.7}, {"measurement": "pKa", "setting": "[4]; vardenafil: 7.15 mostly basic, 9.86 mostly acidic", "result": 7.2}, {"measurement": "solubility in water", "setting": "[5]; pH 3-4", "result": "about 7.0 mg/ml"}, {"measurement": "solubility in water", "setting": "[5]; pH 5", "result": "~2100", "unit": "µg/mL"}, {"measurement": "solubility in water", "setting": "[5]; pH 7", "result": "~30", "unit": "µg/mL"}]}]}
